From patent US20190367516A1 (Bayer Pharma Aktiengesellschaft, priority 2015, published 2019) come the findings set out here.

Where two headings read alike, the source gives them in different places.

Assay [1] addresses T1, human M2 receptor (Homo sapiens, UniProt P08172).
T1 sequence (P08172 1-466): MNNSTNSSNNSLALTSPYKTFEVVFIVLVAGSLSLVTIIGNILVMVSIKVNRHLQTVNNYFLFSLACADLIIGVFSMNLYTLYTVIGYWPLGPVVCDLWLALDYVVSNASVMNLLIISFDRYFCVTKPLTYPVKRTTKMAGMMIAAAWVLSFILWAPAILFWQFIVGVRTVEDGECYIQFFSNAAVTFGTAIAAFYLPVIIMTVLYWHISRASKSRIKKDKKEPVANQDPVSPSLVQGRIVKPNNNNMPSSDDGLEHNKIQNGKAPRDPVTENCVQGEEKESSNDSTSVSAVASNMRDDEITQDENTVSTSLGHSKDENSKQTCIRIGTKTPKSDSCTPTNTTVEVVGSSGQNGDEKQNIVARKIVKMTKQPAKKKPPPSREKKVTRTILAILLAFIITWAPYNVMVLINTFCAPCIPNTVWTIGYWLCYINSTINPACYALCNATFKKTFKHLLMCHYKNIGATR
In kind it is cell-based. Particulars: α >1 = positive cooperativity.

For assay [2], the target named is T1, human M2 receptor. Particulars: for Emax: read-out: Efficiency, boosting of the acetylcholine effect at EC20 acetylcholine concentration.
Where [3] appears, read: shift in the acetylcholine dose-response curve (Allosteric EC50 shift, GraphPad PRISM).
The mark [4] stands for this setting: Receptor activity EC50, M2-GIRK1/4 activation test, acetylcholine at EC20, allosteric potency, in some cases mean values from two or more determinations.
Where [5] appears, read: shift of acetylcholine dose-response curve (Allosteric EC50 shift).
Setting [6] is: Receptor activity EC50, allosteric potency at EC20 acetylcholine, M2-GIRK1/4 reporter cells, in some cases mean of two or more determinations.

As for `O=C(NC12CC(C(F)(F)F)(C1)C2)c1cn(-c2c(F)cc(F)cc2F)c2nc(N3C[C@@H](O)CC3=O)ccc2c1=O` [Example 372, 7-[(4S)-4-Hydroxy-2-oxopyrrolidin-1-yl]-4-oxo-N-[3-(trifluoromethyl)bicyclo[1.1.1]pent-1-yl]-1-(2,4,6-trifluorophenyl)-1,4-dihydro-1,8-naphthyridine-3-carboxamide], at human M2 receptor [1] (setting [3]), the “Cooperativity (alpha factor)” value was found to be 34. On human M2 receptor [2] (setting [4]), this molecule gave an EC50 of 20 nM.
The like results for `CC[C@H](NC(=O)c1cn(-c2c(F)cc(F)cc2F)c2nc(N3CCN/C3=N\C(=O)OC)ccc2c1=O)C(F)(F)F` [Example 377, Methyl {1-[5-oxo-6-{[(2S)-1,1,1-trifluorobutan-2-yl]carbamoyl}-8-(2,4,6-trifluorophenyl)-5,8-dihydro-1,8-naphthyridin-2-yl]imidazolidin-2-ylidene}carbamate] were, in that order, 34 and 48 nM.
In the same order, the values of `CN(CCO)c1ccc2c(=O)c(C(=O)N[C@@H](C3CC3)C(F)(F)F)cn(-c3c(F)cc(F)cc3F)c2n1` [Example 384, N-[(1S)-1-Cyclopropyl-2,2,2-trifluoroethyl]-7-[(2-hydroxyethyl)(methyl)amino]-4-oxo-1-(2,4,6-trifluorophenyl)-1,4-dihydro-1,8-naphthyridine-3-carboxamide] are 22 and 28 nM.
The like results for `CN(CC(=O)O)c1ccc2c(=O)c(C(=O)N[C@@H](C3CC3)C(F)(F)F)cn(-c3c(F)cc(F)cc3F)c2n1` [Example 385, N-[6-{[(1S)-1-Cyclopropyl-2,2,2-trifluoroethyl]carbamoyl}-5-oxo-8-(2,4,6-trifluorophenyl)-5,8-dihydro-1,8-naphthyridin-2-yl]-N-methylglycine] were, in that order, 11 and 68 nM.
In the case of `O=C(NC12CC(C1)C2)c1cn(-c2c(F)cc(F)cc2Cl)c2nc(N3C[C@@H](O)CC3=O)ccc2c1=O` [Example 396, N-(Bicyclo[1.1.1]pent-1-yl)-1-(2-chloro-4,6-difluorophenyl)-7-[(4S)-4-hydroxy-2-oxopyrrolidin-1-yl]-4-oxo-1,4-dihydro-1,8-naphthyridine-3-carboxamide], the “Cooperativity (alpha factor)” value on human M2 receptor [1] (setting [5]) is 29. Also, a half-maximal response on human M2 receptor [2] (setting [6]) (EC50) required 17 nM. At human M2 receptor [2] (M2-GIRK1/4 reporter cells), the Emax came out at 92%.
In the same order, the values of `CC[C@H](NC(=O)c1cn(-c2c(F)cc(F)cc2Cl)c2nc(N3C[C@@H](O)CC3=O)ccc2c1=O)C(F)(F)F` [Example 398, 1-(2-Chloro-4,6-difluorophenyl)-7-[(4S)-4-hydroxy-2-oxopyrrolidin-1-yl]-4-oxo-N-[(2S)-1,1,1-trifluorobutan-2-yl]-1,4-dihydro-1,8-naphthyridine-3-carboxamide] are 26, 10 nM and 100%.
The like results for `O=C(NC12CC(C1)C2)c1cn(-c2c(F)cc(F)cc2Cl)c2nc(N3C[C@@H](O)[C@H](O)C3)ccc2c1=O` [Example 402, N-(Bicyclo[1.1.1]pent-1-yl)-1-(2-chloro-4,6-difluorophenyl)-7-[(3R,4R)-3,4-dihydroxypyrrolidin-1-yl]-4-oxo-1,4-dihydro-1,8-naphthyridine-3-carboxamide] were, in that order, 18, 25 nM and 97.5%.
The like results for `C[C@H](NC(=O)c1cn(-c2c(F)cc(F)cc2Cl)c2nc(N3C[C@@H](O)CC3=O)ccc2c1=O)C(F)(F)F` [Example 409, 1-(2-Chloro-4,6-difluorophenyl)-7-[(4S)-4-hydroxy-2-oxopyrrolidin-1-yl]-4-oxo-N-[(2S)-1,1,1-trifluoropropan-2-yl]-1,4-dihydro-1,8-naphthyridine-3-carboxamide] were, in that order, 22, 19 nM and 99.5%.
With `C[C@@H]1CN(c2ccc3c(=O)c(C(=O)N[C@@H](C4CC4)C(F)(F)F)cn(-c4c(F)cc(F)cc4F)c3n2)C(=O)N1` [Example 437, N-[(1S)-1-Cyclopropyl-2,2,2-trifluoroethyl]-7-[(4R)-4-methyl-2-oxoimidazolidin-1-yl]-4-oxo-1-(2,4,6-trifluorophenyl)-1,4-dihydro-1,8-naphthyridine-3-carboxamide], at human M2 receptor [1] (setting [5]), the “Cooperativity (alpha factor)” value is reported as 29. The response on human M2 receptor [2] (setting [6]) was half-maximal at 9 nM (EC50). Besides, the Emax at human M2 receptor [2] (M2-GIRK1/4 reporter cells) was 98.4%.
The like results for `C[C@H]1CN(c2ccc3c(=O)c(C(=O)N[C@@H](C4CC4)C(F)(F)F)cn(-c4c(F)cc(F)cc4F)c3n2)C(=O)N1` [Example 449, N-[(1 S)-1-Cyclopropyl-2,2,2-trifluoroethyl]-7-[(4S)-4-methyl-2-oxoimidazolidin-1-yl]-4-oxo-1-(2,4,6-trifluorophenyl)-1,4-dihydro-1,8-naphthyridine-3-carboxamide] were, in that order, 34, 15 nM and 91%.
In the same order, the values of `CC1(C)CN(c2ccc3c(=O)c(C(=O)N[C@@H](C4CC4)C(F)(F)F)cn(-c4c(F)cc(F)cc4F)c3n2)C(=O)N1` [Example 451, N-[(1 S)-1-Cyclopropyl-2,2,2-trifluoroethyl]-7-(4,4-dimethyl-2-oxoimidazolidin-1-yl)-4-oxo-1-(2,4,6-trifluorophenyl)-1,4-dihydro-1,8-naphthyridine-3-carboxamide] are 21, 8 nM and 91%.
On to `C[C@@H]1CN(c2ccc3c(=O)c(C(=O)NC(C)(C)C(F)F)cn(-c4c(F)cc(F)cc4F)c3n2)C(=O)N1` [Example 452, N-(1,1-Difluoro-2-methylpropan-2-yl)-7-[(4R)-4-methyl-2-oxoimidazolidin-1-yl]-4-oxo-1-(2,4,6-trifluorophenyl)-1,4-dihydro-1,8-naphthyridine-3-carboxamide], for which the “Cooperativity (alpha factor)” value at human M2 receptor [1] (setting [5]) worked out at 25. At human M2 receptor [2] (setting [6]), this molecule showed a concentration giving a half-maximal response (EC50) of 13 nM. The Emax on human M2 receptor [2] (M2-GIRK1/4 reporter cells) came out at 100%.
Consider `CC[C@H](NC(=O)c1cn(-c2c(F)cc(F)cc2F)c2nc(N3C[C@@H](C)NC3=O)ccc2c1=O)C(F)(F)F` [Example 456, 7-[(4R)-4-Methyl-2-oxoimidazolidin-1-yl]-4-oxo-N-[(2S)-1,1,1-trifluorobutan-2-yl]-1-(2,4,6-trifluorophenyl)-1,4-dihydro-1,8-naphthyridine-3-carboxamide], for which, at human M2 receptor [1] (setting [5]), the “Cooperativity (alpha factor)” value amounted to 32. On human M2 receptor [2] (setting [6]), this molecule gave an EC50 of 9 nM. Besides, at human M2 receptor [2] (M2-GIRK1/4 reporter cells), the Emax came to 92%.
`C[C@@H]1CN(c2ccc3c(=O)c(C(=O)NC(C)(C)CC(F)(F)F)cn(-c4c(F)cc(F)cc4F)c3n2)C(=O)N1` [Example 457, 7-[(4R)-4-Methyl-2-oxoimidazolidin-1-yl]-4-oxo-N-(4,4,4-trifluoro-2-methylbutan-2-yl)-1-(2,4,6-trifluorophenyl)-1,4-dihydro-1,8-naphthyridine-3-carboxamide]: the “Cooperativity (alpha factor)” value on human M2 receptor [1] (setting [5]) came out at 36. At human M2 receptor [2] (setting [6]), this molecule had a concentration giving a half-maximal response (EC50) of 4 nM. Also, the Emax at human M2 receptor [2] (M2-GIRK1/4 reporter cells) turned out to be 82%.
Turning to `O=C(N[C@@H](C1CC1)C(F)(F)F)c1cn(-c2c(F)cc(F)cc2F)c2nc(N3CCCC[C@@H]3CO)ccc2c1=O` [Example 462, N-[(1 S)-1-Cyclopropyl-2,2,2-trifluoroethyl]-7-[(2R)-2-(hydroxymethyl)piperidin-1-yl]-4-oxo-1-(2,4,6-trifluorophenyl)-1,4-dihydro-1,8-naphthyridine-3-carboxamide], the “Cooperativity (alpha factor)” value at human M2 receptor [1] (setting [5]) came out at 17. This molecule registered a 50% effective concentration (EC50) on human M2 receptor [2] (setting [6]) of 18 nM. Also, the Emax on human M2 receptor [2] (M2-GIRK1/4 reporter cells) amounted to 88%.
In the same order, the values of `CC(C)C(NC(=O)c1cn(-c2c(F)cc(F)cc2F)c2nc(N3C[C@@H](O)[C@H](O)C3)ccc2c1=O)C(C)C` [Example 474, 7-[(3R,4R)-3,4-Dihydroxypyrrolidin-1-yl]-N-(2,4-dimethylpentan-3-yl)-4-oxo-1-(2,4,6-trifluorophenyl)-1,4-dihydro-1,8-naphthyridine-3-carboxamide] are 44, 5 nM and 100%.
Turning to `CC(C)C(NC(=O)c1cn(-c2c(F)cc(F)cc2F)c2nc(N3C[C@@H](O)CC3=O)ccc2c1=O)C(C)C` [Example 475, N-(2,4-Dimethylpentan-3-yl)-7-[(4S)-4-hydroxy-2-oxopyrrolidin-1-yl]-4-oxo-1-(2,4,6-trifluorophenyl)-1,4-dihydro-1,8-naphthyridine-3-carboxamide], at human M2 receptor [1] (setting [5]), the “Cooperativity (alpha factor)” value turned out to be 68. For the same molecule, at human M2 receptor [2] (setting [6]), the midpoint of the response, the EC50, lay at 2 nM. Further, the Emax on human M2 receptor [2] (M2-GIRK1/4 reporter cells) is 100%.
For `CC(C)(NC(=O)c1cn(-c2c(F)cc(F)cc2F)c2nc(N3CC[C@@H](O)C3=O)ccc2c1=O)C(F)(F)F` [Example 488, 7-[(3R)-3-Hydroxy-2-oxopyrrolidin-1-yl]-4-oxo-N-(1,1,1-trifluoro-2-methylpropan-2-yl)-1-(2,4,6-trifluorophenyl)-1,4-dihydro-1,8-naphthyridine-3-carboxamide], the “Cooperativity (alpha factor)” value at human M2 receptor [1] (setting [5]) came to 53. Moreover, the half-maximal effective concentration (EC50) at human M2 receptor [2] (setting [6]) came to 24 nM. Also, the Emax on human M2 receptor [2] (M2-GIRK1/4 reporter cells) amounted to 96%.
